PubChem BioAssay AID743170 (Sanford-Burnham Center for Chemical Genomics, 2013)
pIC50: −log10 of the molar value. “And” between values parts separate entries of the source, which are not always exact repeats. Equal entries are not always repeated. The source made the active and inactive calls.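 How the source made its calls: active means compounds that lower Nile red lipid droplet staining in rat heart muscle cells with dose, giving a fitted IC50; inactive means the rest.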

System: H9c2 cells, Nile red TAG accumulation, high-content imaging
Test: inhibitors of cytoplasmic TAG accumulation in H9c2, dose response, imaging, H9c2 cells, high-content screening (AID 743170)

Row | IC50 | pIC50 | Structure (SMILES)
1 | > 50000 nM (inactive) | – | COCCN1Cc2cccc(C(=O)Nc3nc4ccccc4[nH]3)c2C1=O
2 | – | 6.12 | CCCCN1Cc2cccc(C(=O)Nc3cccc(-c4nc5ccccc5[nH]4)c3)c2C1=O
3 | > 50000 nM (inactive) | – | COCCN1Cc2cccc(C(=O)NCc3cccc(N(C)C)c3)c2C1=O
4 | > 50000 nM (inactive) | – | CCOC(=O)c1cccc(NC(=O)c2cccc3c2C(=O)N(CCOC)C3)c1
5 | > 50000 nM (inactive) | – | COCCN1Cc2cccc(C(=O)Nc3cccnc3)c2C1=O
6 | > 50000 nM (inactive) | – | COCCN1Cc2cccc(C(=O)Nc3nc4ccccc4n3C)c2C1=O
7 | – | 6.28 | CSCCCN1Cc2cccc(C(=O)Nc3cccc(-c4nc5ccccc5[nH]4)c3)c2C1=O
8 | – | 6.45 | COCCN1Cc2cccc(C(=O)Nc3cccc(-c4nc5ccc(C(F)(F)F)cc5[nH]4)c3)c2C1=O
9 | > 50000 nM (inactive) | – | COCCn1cnc2cccc(C(=O)Nc3cccc(-c4nc5ccccc5[nH]4)c3)c2c1=O
10 | – | 5.63 | COCCN1Cc2cccc(C(=O)Nc3cccc(C(=O)Nc4ccccc4)c3)c2C1=O
11 | – | 5.60 | COCCN1Cc2cccc(C(=O)Nc3cccc(C(=O)Nc4ccccc4OC)c3)c2C1=O
12 | – | 6.41 | COCCN1Cc2cccc(C(=O)Nc3cccc(-c4nc5ccc(C)cc5[nH]4)c3)c2C1=O
13 | – | 4.95 | O=C(Nc1cccc(-c2nc3ccccc3[nH]2)c1)c1cccc2c1C(=O)N(CCc1ccccc1)C2
14 | – | 6.18 | O=C(Nc1cccc(-c2nc3ccccc3[nH]2)c1)c1cccc2c1C(=O)N(CC1CC1)C2
15 | – | 6.10 | CCOCCN1Cc2cccc(C(=O)Nc3cccc(-c4nc5ccccc5[nH]4)c3)c2C1=O
16 | – | 6.10 | O=C(Nc1cccc(-c2nc3ccccc3[nH]2)c1)c1cccc2c1C(=O)N(CCOc1ccccc1)C2
17 | – | 6.25 and 6.24 and 6.08 | COCCN1Cc2cccc(C(=O)Nc3cccc(-c4nc5ccccc5[nH]4)c3)c2C1=O
18 | – | 6.36 | COc1ccccc1CCN1Cc2cccc(C(=O)Nc3cccc(-c4nc5ccccc5[nH]4)c3)c2C1=O
19 | – | 5.99 | COCCN1Cc2cccc(C(=O)Nc3cccc(-c4nc5ccc(Cl)cc5[nH]4)c3)c2C1=O
20 | – | 6.12 | COCCN1Cc2cccc(C(=O)Nc3cccc(-c4nc5ccc(F)cc5[nH]4)c3)c2C1=O
21 | – | 5.76 | O=C(Nc1cccc(-c2nc3ccccc3[nH]2)c1)c1cccc2c1C(=O)N(CCN1CCOCC1)C2
22 | – | 5.86 | COCCCN1Cc2cccc(C(=O)Nc3cccc(-c4nc5ccccc5[nH]4)c3)c2C1=O
23 | – | 6.08 | COc1ccc(CCN2Cc3cccc(C(=O)Nc4cccc(-c5nc6ccccc6[nH]5)c4)c3C2=O)cc1OC
